Laboratory results from patent US20080153858A1, “ANTITUMORIGENIC DRUG COMBINATION” (ABBOTT LABORATORIES, priority 2006, published 2008).
Marks after values point to notes of the source that are not given here.

Assays:
Calu-6 NSCLC xenograft = assay: Calu-6 flank xenograft model, tumor growth delay; format: in vivo, nu/nu mice
Method: Female nu/nu mice (Charles River Labs.) were injected subcutaneously with 0.25 mL of 5×10^6 Calu-6 cells (1:1 with matrigel) on study day 0. The human Calu-6 cells were obtained from a tumor homogenate from previously inoculated donor mice. The cellular implantation site was the right thigh, and all mice were ear tagged. On day 10, tumors were size matched to approximately 170 mm^3 and were placed into the therapy groups outlined in the study design below. The tumors were measured with calipers 2-3 times per week after tumors were palpable. Tumor volume were calculated according to the formula V=L×W^2/2 (V: volume, mm^3; L: length, mm. W: width, mm). The mice were humanely euthanized when the tumor volumes reached a predetermined size. The study design was as follows:
ABT-751 was formulated in 1% HCl, 4% ethanol, and 95% D5W while pemetrexed was formulated in normal saline.
Study group treatments are defined in Table 1.

[1] = tested on: thymidine kinase minus human colon carcinoma xenograft (GC3 TK-); assay: GC3 TK- flank xenograft model, tumor growth delay; format: in vivo, nu/nu mice
Method: nu/nu female mice (Charles Rivers Labs) were injected subcutaneously with 0.2 mL of 5×10^6 GC3TK-100c3 cells (1:1 matrigel) on study day 0. […] The cellular implantation site was the right flank, and all mice were ear tagged. Tumors were size matched to 205 mm^3, and animals were placed into the therapy groups shown in the study design below (Table 3). The tumors were measured with calipers 2 times per week after tumors were palpable. The mice were humanely euthanized when the tumor volumes reached a predetermined size. The study design was as follows: [table]

[2] = tested on: thymidine kinase minus human colon carcinoma xenograft (GC3 TK-); conditions: Schultz, 1999; cited from earlier work

SMILES | Mean % TGD (tumor growth delay) increase compared to vehicle in time to 1.5 cc tumor (Calu-6 NSCLC xenograft; Group 1: ABT-751 100 mg/kg p.o. Days 10-14 and 20-24, plus pemetrexed vehicle) | Mean % TGD (tumor growth delay) increase compared to vehicle in time to 1.5 cc tumor (Calu-6 NSCLC xenograft; Group 6: ABT-751 100 mg/kg p.o. Days 15-19 and 25-29, plus pemetrexed vehicle) | Median % TGD (tumor growth delay) increase compared to vehicle in time to 0.75 cc tumor ([1]; Group 1: ABT-751 100 mg/kg p.o. Days 38-42 and 48-52, plus pemetrexed vehicle) [%] | Mean % TGD (tumor growth delay) increase compared to vehicle in time to 1.5 cc tumor (Calu-6 NSCLC xenograft; Group 2: pemetrexed 150 mg/kg i.p. Days 10-14 and 20-24, plus ABT-751 vehicle) | Mean % TGD (tumor growth delay) increase compared to vehicle in time to 1.5 cc tumor (Calu-6 NSCLC xenograft; Group 4: pemetrexed 150 mg/kg i.p. Days 15-19 and 25-29, plus ABT-751 vehicle) | Median % TGD (tumor growth delay) increase compared to vehicle in time to 0.75 cc tumor ([1]; Group 2: pemetrexed 150 mg/kg i.p. Days 38-42, plus ABT-751 vehicle) [%] | Median % TGD (tumor growth delay) increase compared to vehicle in time to 0.75 cc tumor ([1]; Group 3: pemetrexed 150 mg/kg i.p. Days 43-47, plus ABT-751 vehicle) | sensitivity in the thymidine kinase-deficient GC3 model [2]
COc1ccc(S(=O)(=O)Nc2cccnc2Nc2ccc(O)cc2)cc1 [ABT-751, N-(2-((4-Hydroxyphenyl)amino)pyridin-3-yl)-4-methoxybenzenesulfonamide] | 18.0***^b % | 18.0*** % | 0.0 |  |  |  |  | 
Nc1nc2[nH]cc(CCc3ccc(C(=O)N[C@@H](CCC(=O)O)C(=O)O)cc3)c2c(=O)[nH]1 [pemetrexed] |  |  |  | 11.1** % | 5.6* % | 14.8 | 30.7*^b % | quite sensitive
